{
  "source": "patent US6379959B1",
  "about": "“Metalocarboxypeptidase inhibitors and derived molecules used as antitumor agents” (Universitat Autonoma de Barcelona, priority 1996, dated 2002)",
  "key": {"cell line Capan-1": {"test_system": "cell line Capan-1", "test": "Studies of PCI disappearance from the culture medium", "format": "cell-based, human", "conditions": "50 μg/mL flask, 24 h; CPA inhibitory activity and ELISA", "description": "The studies of PCI disappearance were carried out in the cell line Capan-1 by employing various concentrations of PCI.\nIn three small culture flasks (of 25 cm^2), 5×10^5 cells were placed in each and they were cultivated in medium DMEM+10%FBS until the moment in which, through microscope observation, it could be seen that they had reached 75% of confluence. At this moment, the medium was removed and was substituted by new DMEM+10%FBS (50 μg/mL flask) and by medium with 200 μg/mL of PCI (flask 200 μg/mL). The three flasks were cultivated for a further 24 h. From each of these, samples of […] of culture medium were extracted at half hour intervals. In each of these samples, the existing concentration of PCI was determined by employing two methods (described in the bibliography cited in point 4.A.):\nTests of carboxypeptidase A inhibitory activity\nIn such tests, samples taken from the control flask at the same intervals were used as blanks.\nOne of the ELISAs that was done with the samples coming from the 200 μg/mL flask was carried out under special conditions in the first step (fixation of the antigens); concretely, by using a concentration of 0.5 M NaCl."}, "embryonic cells of mice": {"test_system": "embryonic cells of mice", "conditions": "PCI in low concentrations (5 μg/mL), in vitro; cited from earlier work"}, "β2-microglobuline": {"test_system": "β2-microglobuline", "test": "Gene expression analysis by Northern transfer, β2-microglobuline probe", "format": "cell-based, human", "conditions": "12 days, Capan-1 (control 955)", "description": "To verify whether the PCI plays any role in signal transduction, studies of gene expression were carried out by Northern transfer. The probes were: β2-microglobulin, p53 and trypsin. The β2-microglobulin is a constitutive gene that is used as a sample loading control in the gel. p53 is a transcription factor which, among other functions, controls the state of the genomic DNA and the cell cycle (Bates, S. & Vousden, K. H. (1996) Curr. Opin. Genet. Develop., 6: 12-19). If the DNA is damaged, p53 induces its repair and, if it is excessively damaged, it provokes programmed cellular death (apoptosis). Trypsin is a marker of pancreatic cells of the acinar type. The trypsin is not expressed by all the tumoral cells and it is believed that it is expressed by the cells with metastatic power and/or invasive power (Fernández, E. et al., (1994) Cancer, 73: 2285-2295). The probes employed are described as follows:\nIn the first place, 3×10^6 cells of the human pancreatic adenocarcinoma cell line Capan-1 were placed in each one of the 12 flasks of 150 cm^2. […] They were maintained in culture for 12 days period, changing their medium every 4 days, adding fresh PCI. […]\nThe quantifying of the hybridized filters with the respective probes was done using a Betascope 601 blot Analyzer counter (Betagen, USA). […]"}, "[1]": {"test_system": "human pancreatic adenocarcinoma cell line IBF-CP3", "test": "Proliferation test by recount of the cells number (hemocytometer), IBF-CP3", "format": "cell-based", "description": "In this assay and with the aim of determining whether the presence in the culture medium produces some effect on the growth in vitro of the cell lines, the final number of the cells when the control reaches monolayer is determined, in the presence and in the absence of the inhibitor. The calculation is made by direct recount of the number of cells using trypsinization and subsequent recount in a hemocytometer. The detailed method is as follows:\n1. In each of the three culture flasks of 25 cm^2, 5×10^5 cells are seed and a total volume of the culture medium is added (DMEM with a 10% of fetal bovine serum or synthetic serum, according to the test) of 5 mL:\nA first flask is used as control and no PCI is added to it.\nPCI is added to a second flask some hours after the culture has started and once the cells have adhered to the bottom of the flask. This type of test is defined as postadherence test.\nPCI is added to a third flask at the same time as the culture has begun, before the cells have had time to adhere to the bottom of the flask, thus constituting the preadherence test.\n2. The cells are maintained in an incubator at 37° C., 87% of relative humidity and 10% of CO2. The medium contained in the flasks is changed every 3-4 days. Medium free of PCI is added to the control flask; medium with PCI is added to the other two.\n3. When the culture of one of the flasks reaches a state of monolayer (or after a specific number of days), we proceed to count the number of cells in each one of them. Firstly and in order to do that, the cells are trypsinized using the following steps:\nImmediately after, the recount of the number of cells is done. To do that, an aliquot of 10 μL is taken and it is placed in an eppendorf tube. 10 μL of a solution of trypan blue dye is added. Then, it is well mixed and two aliquots of 10 μL of the mixture are taken and placed in the two zones of an hemocytometer which is placed in the inverted microscope.\nThe live cells are observed as being refringent and clear, while the dead ones are observed as opaque and dyed blue, for the staining is only able to penetrate dead cells. The total number of cells of the W zone of the hemocytometer is counted, differentiating between the live and the dead ones. Based on this recount, the total number of cells that was in the initial suspension (which will be the total number of cells that was in the culture) is calculated by multiplying the number obtained by 2×10^4. The viability (in %) is calculated by dividing the number of live cells by the total number of counted cells and multiplying it by 100.\nThe effect produced by the presence of PCI in the medium is expressed as % of cell growth inhibition, which is calculated according to the formula [formula] […]"}, "[2]": {"test_system": "human pancreatic adenocarcinoma cell line Capan-1", "test": "Flow cytometry analysis of cell cycle phases", "format": "cell-based", "conditions": "50 µg/mL of PCI"}},
  "note": "Positions of bridges follow the written chain, without caps; N, C: chain ends. No end group written: not given here.",
  "data": [
    {"substance": "PCI: potato carboxypeptidase inhibitor, isoform IIa, obtained by recombinant DNA techniques in E. coli (SEQ ID NO.2) (EQHADPICNKPCKTHDDCSGAWFCQACWNSARTCGPYVG; disulfide 12-27, 18-34, 8-24)", "values": [
      {"measurement": "internalization (disappearance of PCI from the culture medium)", "setting": "cell line Capan-1", "result": "clearly internalized by the cells"},
      {"measurement": "tumoral transformation induced by irradiation", "setting": "embryonic cells of mice", "result": "inhibits in vitro the tumoral transformation"},
      {"measurement": "beta counts, β2-microglobuline probe", "setting": "β2-microglobuline; 1 mg/mL PCI", "result": 2183},
      {"measurement": "beta counts, β2-microglobuline probe", "setting": "β2-microglobuline; 10 mg/mL PCI", "result": 6287},
      {"measurement": "Percentage of Growth Inhibition", "setting": "[1]; 5 mg PCI/mL, Postadhesion", "result": "23.7 ± 19.3", "unit": "%"},
      {"measurement": "Percentage of Growth Inhibition", "setting": "[1]; 5 mg PCI/mL, Preadhesion, DMEM+10%BMS until controls confluent", "result": "20.4 ± 14.2", "unit": "%"},
      {"measurement": "Percentage of Growth Inhibition", "setting": "[1]; 10 mg PCI/mL, Postadhesion", "result": "15.1 ± 8.3", "unit": "%"},
      {"measurement": "Percentage of Growth Inhibition", "setting": "[1]; 10 mg PCI/mL, Preadhesion", "result": "11.6 ± 8.5", "unit": "%"},
      {"measurement": "% G2 M", "setting": "[2]; 24 h (control 6.4)", "result": 4.7, "unit": "%"},
      {"measurement": "% S", "setting": "[2]; 24 h (control 14.3)", "result": 20.4, "unit": "%"},
      {"measurement": "% G1", "setting": "[2]; 24 h (control 79.2)", "result": 74.9, "unit": "%"},
      {"measurement": "% G1", "setting": "[2]; 48 h", "result": 85.3, "unit": "%"},
      {"measurement": "% G2 M", "setting": "[2]; 48 h", "result": 3.7, "unit": "%"},
      {"measurement": "% S", "setting": "[2]; 48 h", "result": 11, "unit": "%"},
      {"measurement": "% G1", "setting": "[2]; 72 h", "result": 85.1, "unit": "%"},
      {"measurement": "% G2 M", "setting": "[2]; 72 h", "result": 4, "unit": "%"},
      {"measurement": "% S", "setting": "[2]; 72 h", "result": 10.9, "unit": "%"},
      {"measurement": "% G1", "setting": "[2]; 96 h", "result": 88.5, "unit": "%"},
      {"measurement": "% G2 M", "setting": "[2]; 96 h", "result": 3.9, "unit": "%"},
      {"measurement": "% S", "setting": "[2]; 96 h", "result": 7.6, "unit": "%"}
    ]}
  ]
}
